From patent US10080366B2, “Agent for increasing sugar content in fruit” (RIKEN, priority 2012, dated 2018)
Like-named read-outs stand apart in the source and are kept apart here.

Legend:
[1] = test system: fruit of grape (variety: Red Globe); details: for Sugar content (%) May 16: date of application; for mass of fruit as % of the mass on the date of application: 17 days later; for Sugar content (%) Jun. 2 Calculated value: calculated from decrease in mass
Method: The mass of fruit of grape (variety: Red Globe) purchased on the market was measured. Then, the prepared agents for increasing a sugar content in a fruit were applied by spraying to the fruit of grape, which was then allowed to stand in an air-conditioned greenhouse (temperature: 25° C.). With the mass of the grape on the date of application being 100 g, the mass of the grape after the application was measured over time (date of application: May 16, 2011; dates of test: May 19, May 23, May 27, May 30, and Jun. 2, 2011). Next, on the assumption that the change in mass of the fruit was entirely due to the change in water content, the calculated value of the sugar content was determined from the amount of decrease in mass and the sugar content on the date […] of the application (calculated as follows: “the sugar content (calculated value)=the sugar content (%) on the date of application×the mass (g) on the date of application/the mass (g) on the date of measurement”). In addition, as a control, the mass of untreated grape was measured in the same manner. The results are shown in Tables 7 and 8 and FIGS. 12 to 14.

Mikan = details: 6 days after treatment
Tomato = details: 6 days after treatment
[2] = test system: harvested fruit of grape (variety: Barikan); details: for Sugar content (%) 8 days later, actually measured value / Mass (g) 6 days later (Jun. 8) / Mass (g) 8 days later (Jun. 10): 25° C.; for Mass (g) 6 days later (Jun. 8) / Mass (g) 8 days later (Jun. 10): mass 100 g on date of application; for Sugar content (%) 8 days later, calculated value: calculated from decrease in mass; for Sugar content (%) on date of application (Jun. 2): before application
Method: The fruit of grape was maintained in an air-conditioned greenhouse (temperature: 25° C.), and measured for the mass over time. The sugar content of the fruit was measured before the application and 8 days after the application with a sugar content meter. Next, on the assumption that the change in the mass of the fruit was entirely due to the change in water content, calculated values of the amount of decrease in mass and the sugar content on the date (June 2) of the application were determined […] by using the following calculation formula. (Calculated as follows: the sugar content (%) calculated value))=the sugar content (%) before application×the mass (g) on the date of application/the mass (g) on the date of measurement))

[3] = test system: clusters of grape (variety: Crimson); experiment: Estimated transpiration ratio of grape clusters (Example 9); type: in vivo; details: 10 g/L; 8 days after treatment
[4] = test system: fruit of grape (variety: Red Globe)
Method: An agent for increasing a sugar content in a fruit (containing Sorbon T-20 as a spreader/sticker at a final concentration of 200 μL/L) diluted with water to have a potassium hydrogen carbonate concentration of 10 g/L was prepared. The mass of fruit of grape (variety: Red Globe) purchased on the market was measured. Then, the prepared agent for increasing a sugar content in a fruit was applied by spraying to the fruit of grape. Then, the fruit of grape was allowed to stand in an air-conditioned greenhouse (temperature: 25° C.), and the mass was measured over time (date of application: Apr. 27, 2011; dates of test: May 2, 2011, May 6, 2011, May 9, 2011, May 11, 2011, May 13, 2011, and May 16, 2011). In addition, as a control, the mass of untreated grape was measured on each date of measurement in the same manner.
On the basis of the measured mass, the estimated amount (cumulative value) of transpiration and the estimated amount of transpiration per day were calculated. The results are shown in Tables 5 and 6 and FIGS. 10 and 11.
Note that the vertical axis in FIG. 10 represents the mass (g) of the fruit of grape on each of the dates of measurement per 100 g of the fruit of grape on the date of application, and the vertical axis in FIG. 11 represents the estimated amount (g) of transpiration on each of the dates of measurement per 100 g of the fruit of grape on the date of application. The estimated amount (g) of transpiration on each of the dates of measurement per 100 g of the fruit of grape on the date of application=(the mass (g) of the fruit of grape on the date of application−the mass (g) of the fruit of grape on the date of measurement)/the mass of the fruit of grape on the date of application×100

[5] = 10 g/L, May 19, 100 g on May 16
[6] = approximately 3 weeks later (19 days later)

O=P([O-])([O-])OP(=O)([O-])[O-].[K+].[K+].[K+].[K+] [Tetrapotassium pyrophosphate, tetrapotassium pyrophosphate]
ratio of decrease in mass per day (comparison) ([1]; 10 g/L): highest ratio of decrease in mass per day | Sugar content (%) May 16 ([1]; 10 g/L group): 16.6% | mass of fruit as % of the mass on the date of application ([1]; 10 g/L): 57.3% | mass (g) of the fruit ([1]; 10 g/L, Jun. 2): 57.3 g | mass (g) of the fruit [1, 5]: 86.7 g | mass (g) of the fruit ([1]; 10 g/L, May 23): 78.9 g | mass (g) of the fruit ([1]; 10 g/L, May 27): 69.8 g | mass (g) of the fruit ([1]; 10 g/L, May 30): 63.8 g | Sugar content (%) Jun. 2 Calculated value ([1]; 10 g/L): 29% | Ratio (%) of decrease in body weight of fruit (Mikan; dilution ratio 100 (10 g/L)): 10.4% | Ratio (%) of decrease in body weight of fruit (Tomato; dilution ratio 100 (10 g/L)): 13.8% | decrease of mass of fruit in 8 days (June 2 to June 10) ([2]; 10 g/L): 19.1% | Sugar content (%) 8 days later, actually measured value ([2]; 10 g/L): 21.5% | Mass (g) 6 days later (Jun. 8) ([2]; 10 g/L): 85.7 g | Mass (g) 8 days later (Jun. 10) ([2]; 10 g/L): 80.9 g | Sugar content (%) 8 days later, calculated value ([2]; 10 g/L): 21.6% | Sugar content (%) on date of application (Jun. 2) [2]: 17.5% | Estimated transpiration ratio (%) Average [3]: 32% | Estimated transpiration ratio (%) First [3]: 32%

O=C([O-])[O-].[K+].[K+] [Potassium carbonate, potassium carbonate]
sugar concentration in the fruit (suggested) ([4]; 2 weeks later, assuming 20% on April 27, 20/41.4): exceeded 48% | Estimated amount (g) of transpiration per 100 g of fruit on date of application ([4]; 5 days later): 18.8 g | Mass (g) of fruit per 100 g of fruit on date of application ([4]; 5 days later (applied Apr. 27)): 81.2 g | Estimated amount (g) of transpiration per 100 g of fruit on date of application ([4]; 9 days later): 31.5 g | Mass (g) of fruit per 100 g of fruit on date of application ([4]; 9 days later): 68.5 g | Estimated amount (g) of transpiration per 100 g of fruit on date of application ([4]; 12 days later): 40 g | Mass (g) of fruit per 100 g of fruit on date of application ([4]; 12 days later): 60 g | Estimated amount (g) of transpiration per 100 g of fruit on date of application ([4]; 14 days later): 45.8 g | Mass (g) of fruit per 100 g of fruit on date of application ([4]; 14 days later): 54.2 g | Estimated amount (g) of transpiration per 100 g of fruit on date of application ([4]; 16 days later): 51.3 g | Mass (g) of fruit per 100 g of fruit on date of application ([4]; 16 days later): 48.7 g | Estimated amount (g) of transpiration per 100 g of fruit on date of application ([4]; 19 days later): 58.6 g | Mass (g) of fruit per 100 g of fruit on date of application ([4]; 19 days later): 41.4 g | mass as % of the mass on the date of application [4, 6]: 41.4% | ratio of transpiration of the fruit [4, 6]: 58.6% | mass relative to mass on the date of application ([4]; in 2 weeks): approximately ½ | estimated amount of transpiration relative to untreated fruit ([4]; in vivo): two times or more of that of the untreated fruit | Sugar content (%) May 16 ([1]; 5 g/L group): 17.6% | mass of fruit as % of the mass on the date of application ([1]; 5 g/L): 66.6% | mass (g) of the fruit ([1]; 5 g/L, Jun. 2): 66.6 g | mass (g) of the fruit ([1]; 5 g/L, May 19, 100 g on May 16): 90.8 g | mass (g) of the fruit ([1]; 5 g/L, May 23): 84.5 g | mass (g) of the fruit ([1]; 5 g/L, May 27): 77 g | mass (g) of the fruit ([1]; 5 g/L, May 30): 72.1 g | Sugar content (%) Jun. 2 Calculated value ([1]; 5 g/L): 26.5% | Sugar content (%) May 16 ([1]; 10 g/L group): 18.2% | mass of fruit as % of the mass on the date of application ([1]; 10 g/L): 65% | mass (g) of the fruit ([1]; 10 g/L, Jun. 2): 65 g | mass (g) of the fruit [1, 5]: 90.6 g | mass (g) of the fruit ([1]; 10 g/L, May 23): 83.9 g | mass (g) of the fruit ([1]; 10 g/L, May 27): 75.9 g | mass (g) of the fruit ([1]; 10 g/L, May 30): 70.6 g | Sugar content (%) Jun. 2 Calculated value ([1]; 10 g/L): 28% | Ratio (%) of decrease in body weight of fruit (Mikan; dilution ratio 50 (20 g/L)): 12.0% | Ratio (%) of decrease in body weight of fruit (Mikan; dilution ratio 100 (10 g/L)): 12.4% | Ratio (%) of decrease in body weight of fruit (Tomato; dilution ratio 50 (20 g/L)): 21.1% | Ratio (%) of decrease in body weight of fruit (Tomato; dilution ratio 100 (10 g/L)): 18.0% | decrease of mass of fruit in 8 days (June 2 to June 10) ([2]; 10 g/L): 25.56% | Sugar content (%) 8 days later, actually measured value ([2]; 10 g/L): 24.5% | Mass (g) 6 days later (Jun. 8) ([2]; 10 g/L): 80.7 g | Mass (g) 8 days later (Jun. 10) ([2]; 10 g/L): 74.5 g | action to increase the sugar content in the fruit (comparison) ([2]; 10 g/L, 8 days): the best | Sugar content (%) 8 days later, calculated value ([2]; 10 g/L): 24.2% | Sugar content (%) on date of application (Jun. 2) [2]: 18.0% | Sugar content (%) on date of application (Jun. 2) ([2]; listed as potassium carbonate): 18% | Estimated transpiration ratio (%) Average [3]: 33% | Estimated transpiration ratio (%) First [3]: 35% | Estimated transpiration ratio (%) Second [3]: 31%
